{
  "source": "patent US20010036952A1",
  "about": "“Small molecule pipecolic acid derivative hair growth compositions and uses” (GPI NIL Holdings, Inc., priority 1997, published 2001)",
  "data": [
    {"molecular_target": "FKBP12 (Homo sapiens, UniProt P62942)", "sequence (P62942 whole entry, species assumed)": "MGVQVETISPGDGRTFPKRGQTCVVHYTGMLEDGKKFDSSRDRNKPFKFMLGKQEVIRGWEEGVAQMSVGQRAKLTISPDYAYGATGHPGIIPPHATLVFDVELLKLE", "test": "Ki test procedure: inhibition of peptidyl-prolyl isomerase (rotamase) activity, chymotrypsin-coupled assay", "assay_type": "biochemical", "settings": "FKBP rotamase, substrate N-succinyl-Ala-Ala-Pro-Phe-p-nitroanilide; read-out: Ki (apparent Ki, rotamase inhibition)", "excerpt": "The inhibition of the prolyl peptidyl cis-trans isomerase activity of FKBP may be measured as an indicator of this affinity.\nInhibition of the peptidyl-prolyl isomerase (rotamase) activity of the compounds used in the inventive methods and pharmaceutical compositions can be evaluated by known methods described in the literature (Harding et al., Nature, 1989, 341:758-760; Holt et al. J. Am. Chem. Soc., 115:9923-9938).\nThe cis-trans isomerization of an alanine-proline bond in a model substrate, N-succinyl-Ala—Ala—Pro—Phe- p-nitroanilide, is monitored spectrophotometrically in a chymotrypsin-coupled assay, which releases para-nitroanilide from the trans form of the substrate. The inhibition of this reaction caused by the addition of different concentrations of inhibitor is determined, and the data is analyzed as a change in first-order rate constant as a function of inhibitor concentration to yield the apparent Ki values.\nIn a plastic cuvette are added […] of ice cold assay buffer (25 mM HEPES, pH 7.8, 100 mM NaCl), […] of FKBP (2.5 mM in 10 mM Tris-Cl pH 7.5, 100 mM NaCl, 1 mM dithiothreitol), […] of chymotrypsin (50 mg/ml in 1 mM HCl) and […] of test compound at various concentrations in dimethyl sulfoxide. The reaction is initiated by the addition of 5 mL of substrate (succinyl-Ala—Phe—Pro—Phe-para-nitroanilide, 5 mg/mL in 2.35 mM LiCl in trifluoroethanol).\nThe absorbance at 390 nm versus time is monitored for 90 seconds using a spectrophotometer and the rate constants are determined from the absorbance versus time data files.", "units": {"Ki": "µM"}, "values": [
      {"compound": "O=C(C(=O)N1CCCCC1C(=O)OCc1ccccc1)c1ccccc1", "note": "(centres unmarked) [Compound 10]", "Ki": 1.5},
      {"compound": "O=C(C(=O)N1CCCCC1C(=O)OCCCCc1ccccc1)c1ccccc1", "note": "(centres unmarked) [Compound 13]", "Ki": 0.35},
      {"compound": "O=C(C(=O)N1CCCCC1C(=O)OCCc1ccccc1)c1ccccc1", "note": "(centres unmarked) [Compound 14]", "Ki": 1.1},
      {"compound": "O=C(C(=O)N1CCCCC1C(=O)OCCCCC1CCCCC1)c1ccccc1", "note": "(centres unmarked) [Compound 15]", "Ki": 0.4},
      {"compound": "COC(=O)C(=O)N1CCCCC1C(=O)OCc1ccccc1", "note": "(centres unmarked) [Compound 16]", "Ki": 80},
      {"compound": "O=C(C(=O)N1CCCCC1C(=O)OCc1ccccc1)c1ccco1", "note": "(centres unmarked) [Compound 20]", "Ki": 3},
      {"compound": "COc1cc(C(=O)C(=O)N2CCCCC2C(=O)OCCCCc2ccccc2)cc(OC)c1OC", "note": "(centres unmarked) [Compound 23]", "Ki": 0.019}
    ]},
    {"tested_on": "hair growth", "test": "not given", "settings": "topical, but not oral, application; cited from earlier work", "values": [
      {"compound": "C=CC[C@@H]1/C=C(\\C)C[C@H](C)C[C@H](OC)[C@H]2O[C@@](O)(C(=O)C(=O)N3CCCC[C@H]3C(=O)O[C@H](/C(C)=C/[C@@H]3CC[C@@H](O)[C@H](OC)C3)[C@H](C)[C@@H](O)CC1=O)[C@H](C)C[C@@H]2OC", "note": "[FK506]", "stimulation of hair growth (in words)": "stimulates hair growth in a dose-dependent manner"}
    ]}
  ]
}
